Activity and IC50 data for twelve compounds are collected here from ChEMBL document CHEMBL3400014, “Cytotoxic acyl amides from the soil fungus Gymnascella dankaliensis” (Bioorg Med Chem, 2015).

The experiment deals with L5178Y. Kind of experiment: Cytotoxicity against mouse L5178Y cells by MTT assay. Format: functional, cell-based. In general terms: Tetrazolium assays rely on reduction of a dye to a coloured formazan, in cell work by metabolically active cells.

SMILES strings stand for the structures. Active and inactive are the calls of the source. No cut-off for these calls is given here.

In the case of `CC(/C=C/C(=O)NC(Cc1ccc(O)cc1)C(=O)O)=C\[C@H](C)CCCCCC(=O)O` (mixture of isomers), the outcome was inactive.

On to `CCCCCC[C@@H](C)/C=C(C)/C=C/C(=O)N[C@H]1C[C@]2(C=C(Cl)C(=O)[C@H](Cl)[C@H]2O)O[C@H]1OC`, for which the IC50 (usually the point on the concentration scale where inhibition reaches its midpoint) came out at 5800 nM.

With `CC(/C=C/C(=O)NC(Cc1ccc(O)cc1)C(=O)O)=C\[C@H](C)CCCCCCO` (mixture of isomers), the result was inactive.

Consider `CCCCCC[C@@H](C)/C=C(C)/C=C/C(=O)N[C@H]1C[C@]2(OC1O)[C@@H]1O[C@@H]1C(O)(CC(C)=O)[C@@H]1O[C@@H]12` (some centres not stated), for which the outcome was inactive.

For the compound `CC(/C=C/C(=O)NC(Cc1ccc(O)cc1)C(=O)O)=C\[C@H](C)CC(=O)O` (mixture of isomers), the outcome was inactive.

Turning to `CCCCCC[C@@H](C)/C=C(C)/C=C/C(=O)N[C@H]1C[C@]2(OC1O)[C@@H]1O[C@@H]1C(O)[C@@H]1O[C@@H]12` (some centres not stated), the result was inactive.

On to `CC(/C=C/C(N)=O)=C\[C@H](C)CC(=O)O`, for which the outcome was inactive.

On to `CCCCCC[C@@H](C)/C=C(C)/C=C/C(=O)N[C@H]1CC2(C=C(Cl)C(=O)C(Cl)=C2)OC1O` (some centres not stated), for which the IC50 worked out at 640 nM.

For `CCCCCC[C@@H](C)/C=C(C)/C=C/C(=O)N[C@H]1C[C@]2(OC1O)[C@@H]1O[C@@H]1C(=O)[C@@H]1O[C@@H]12` (some centres not stated), the IC50 was 580 nM.

`CCCCCC[C@@H](C)/C=C(C)/C=C/C(=O)N[C@H]1C[C@]2(O[C@H]1OC)[C@@H]1O[C@@H]1C(=O)[C@@H]1O[C@@H]12` displayed an IC50 of 440 nM.

Consider `CC(/C=C/C(=O)NC(CO)Cc1ccc(O)cc1)=C\C(C)CC(=O)O` (mixture of isomers), for which the result was inactive.

`CCCCCC[C@@H](C)/C=C(C)/C=C/C(N)=O`: the result was inactive.
